One compound from ChEMBL document CHEMBL6182898, “Design, synthesis and bioevaluation of novel hydrazide derivatives as enhancers of immunotherapy and DNA-damage response in antitumor therapy” (Eur J Med Chem, 2025) can be followed below.

Data set [1] can be described thus: Toxicity in male C57BL/6J mouse implanted with mouse B16-F10 cells assessed as body weight change at 50 mg/kg, IG treated for 14 days consecutively. The note with it: in vivo, po, 336 h, time 14 day. The class given is organism-based.
A short description of data set [2]: Toxicity in male C57BL/6J mouse implanted with mouse B16-F10 cells assessed as body weight change at 25 mg/kg, IG treated for 14 days consecutively in presence of NP-19. It counts as organism-based. The note with it: in vivo, po, 336 h, time 14 day.
A short description of data set [3]: AUC (0 to t) in male Sprague-Dawley rat at 20 mg/kg, po measured for 0.083 to 12 hrs by LC-MS/MS analysis. The class given is ADME, organism-based. The note with it: in vivo, time 0.083-12 hrs.
A further data set deals with B16-F10. Briefly: Induction of antitumor immunity in mouse B16-F10 cells implanted in male C57BL/6J mouse assessed as CD3+CD4+ T cell infiltration at 50 mg/kg, IG treated for 14 days consecutively by flow cytometry (reference value: 7.4 %). The note with it: time 14 day. It counts as functional.
Data set [4] in a line: Half life in male Sprague-Dawley rat at 20 mg/kg, po measured for 0.083 to 12 hrs by LC-MS/MS analysis. The class given is ADME, organism-based. The note with it: in vivo, time 0.083-12 hrs.

On to `CCCNNC(=O)CCCCCCNC(=O)c1cnc(-c2ccc(NC(=O)OC(C)(C)C)cc2)s1`, for which the results for the Activity result (in data set [1]; in data set [2]; in the data set on B16-F10) were “Non-toxic”, “Non-toxic” and 12%, respectively. In data set [3], this compound had an exposure AUC(0-t) of 30.8 ng·h/mL. This compound also gave a half-life in data set [4] of 2.84 h.
